Several values for one entry are separate records, joined by “and”; a condition that tells them apart may be missing. Equal values may be shown once. Entries after “also recorded” stand apart in the source; their conditions may differ. Read-outs that look alike come from different tables or passages of the source. Marks after values point to notes of the source that are not given here.

The values that follow come from PMC8638259 (Biochemistry, 2021).

In series [1] the target is T1, Mat2A/Mat2B complex (Homo sapiens, UniProt P31153).
T1 construct: His6 (N, cleaved yes); TEV protease cleavage site (N, cleaved yes); made in house; host or cells: E. coli BL21 STAR (DE3)
The series can be described thus: Coupled phosphate detection assay (assay 1) with the Mat2A/Mat2B complex. The format is biochemical. Particulars: for Km: Mat2A + Mat2B (250 nM Mat2A, 600 nM Mat2B), pH 7.5, 22 °C.

Series [2] concerns the target T2, human Mat2A (Homo sapiens, UniProt P31153).
T2 construct: His6 (N, cleaved yes); TEV protease cleavage site (N, cleaved yes); made in house; host or cells: E. coli BL21 STAR (DE3)
As to the kind of experiment: Isothermal titration calorimetry (ITC) binding to Mat2A. Particulars: for binding to Mat2A (ITC): in the absence of ATP. Here is the method:
Prior to performing ITC, proteins (approximately 1 mL volume) were dialyzed using D-Tube Dialyzers (Maxi 100–3000 μL, MWCO 6–8 kDa) (Novagen) against 1 L of buffer A for 2–4 h at 4 °C with agitation using a magnetic stirring bar. […] Titrations were performed at 20 °C. Protein concentrations were determined by A280 using a UV-2550 spectrophotometer. The protein and ligand concentrations that were used are indicated in the legends of Figures 5 and 6. ITC measurements were performed on a MicroCal PEAQ-ITC calorimeter (Malvern Panalytical). Data were analyzed using the MicroCal PEAQ-ITC analysis software supplied by the manufacturer using nonlinear regression with the One Set of Sites model. For each experiment, the heat produced or consumed associated with ligand dilution was measured and subtracted from the raw data.
A general note: In ITC the heat of successive injections is recorded.

Series [3] has as its target T2, human Mat2A. The series can be described thus: MESG EnzChek coupled phosphate detection assay (assay 1), Mat2A initial rates. The format is biochemical. Set-up: key to type of inhibition (product inhibition) / inhibition pattern (dead-end inhibition): U indicates uncompetitive inhibition; NC indicates noncompetitive inhibition. Conditions: for Km: average of five independent experiments ± SD.

For series [4], the target named is T2, human Mat2A. As to the kind of experiment: LC-MS SAM detection assay (assay 2), Mat2A initial rates. The format is biochemical. Set-up: key to type of inhibition (product inhibition by phosphate): U indicates uncompetitive inhibition; NC indicates noncompetitive inhibition. Particulars: pH 7.5, 22 °C; for Km: Mat2A only, single experiment, three replicates ± SE; for Ki: read-out: inhibition constant Kis (product inhibition by phosphate). The source says:
In all cases, initial velocities were obtained from the linear regions of the reaction progress curves (<200 s, Figures S3C and S5).
The LC–MS assay monitors SAM directly and was developed to confirm the kinetic parameters that were obtained in the phosphate coupled assay and to carry out product inhibition studies by Pi, which was not possible using the phosphate coupled assay. The amount of SAM produced was quantified using a standard curve (Figure S3F). Prior to LC–MS, 1:1 methanol/acetonitrile + 0.1% (v/v) formic acid was added to the samples. LC–MS was performed using an Agilent 1200 LC system fitted with a Cogent Diamond Hydride Type C silica column (2.1 × 150 mm, dead volume 315 μL). Solvent A was LC–MS grade H2O + 0.1% (v/v) formic acid. Solvent B was acetonitrile + 0.1% (v/v) formic acid. The gradient started at 85% B dropping to 5% B over 14 min. Flow rate was 0.4 mL/min. Mass spectrometry was performed using an Agilent Accurate Mass 6230 TOF apparatus in positive-ion mode. The doubly charged SAM ion was detected at an m/z of 200.0759.
Product and dead-end inhibition data showing competitive, noncompetitive, or uncompetitive patterns were fitted to eqs 2–4, respectively. [drawing 2] 2 [drawing 3] 3 [drawing 4] 4 where I is the inhibitor concentration; S is the concentration of the variable substrate; Km is the Michaelis constant for the variable substrate; and Kis and Kii are the slope and intercept inhibition constants, respectively.
Saturation kinetics data were fitted to eq 5. [drawing 5] 5

Another series concerns Mat2A + Mat2B. Set-up: method as in PMID 28553945. Particulars: after addition of Mat2B, cited from earlier work.
Series [5] concerns the target T1, Mat2A/Mat2B complex. The series can be described thus: Kinetic constants of Mat2A/Mat2B complex after preincubation at 37 °C. The format is biochemical. Conditions: 60 nM Mat2A + 30 nM Mat2B preincubated 15 min at 37 °C; assay at pH 7.5, 22 °C; ATP 1.25 mM; read-out: Km(L-Met).
Series [6] has as its system T3, Mat2A.
T3 construct: His6 (N, cleaved yes); TEV protease cleavage site (N, cleaved yes); made in house; host or cells: E. coli BL21 STAR (DE3)
As to the kind of experiment: Stability assay: Mat2A activity after preincubation at 37 °C. Type of series: biochemical, human.

In series [7] the test system is T3, Mat2A. Conditions: cited from earlier work.
For the next series, the target named is Mat2B (Homo sapiens) (UniProt Q9NZL9). Conditions: cited from earlier work.
Setting [8] is: saturating Mat2B, ATP varied, saturating L-Met 600 μM.
[9] abbreviates: variable substrate ATP, saturating L-Met 0.6 mM.
The mark [10] stands for this setting: variable substrate L-Met, saturating ATP 0.5 or 1 mM.

A word on the Km: it is the substrate concentration at which the rate is half of its maximum. In general, Kd refers to the concentration at which binding is half-saturated. Take `Nc1ncnc2c1ncn2[C@@H]1O[C@H](COP(=O)(O)OP(=O)(O)OP(=O)(O)O)[C@@H](O)[C@H]1O` [ATP, adenosine 5′-triphosphate]: the Michaelis constant (Km) stood at 50 ± 5 µM at Mat2A/Mat2B complex [1] (read-out: Km(ATP)); 50 ± 10 µM at human Mat2A [3] (Mat2A only, pH 7.5, 22 °C, read-out: Km(ATP)); 55 ± 10 µM on human Mat2A [4] (read-out: Km(ATP)). On human Mat2A [2], binding was put at a Kd of 80 ± 30 µM. Besides, on human Mat2A [3] (Mat2A only, dissociation constant of enzyme-ATP complex from eq 1, pH 7.5, 22 °C, read-out: Ki(ATP)), the Ki amounted to 349 ± 66 µM.
With `CSCC[C@H](N)C(=O)O` [L-Met, L-methionine], the Michaelis-Menten constant (Km) in the series with Mat2A + Mat2B (read-out: Km for L-Met) was 2.5 µM; at Mat2A/Mat2B complex [1] (read-out: Km(L-Met)), 4 ± 1 µM; at Mat2A/Mat2B complex [5], 3.9 ± 0.1 µM; on human Mat2A [3] (Mat2A only, pH 7.5, 22 °C, read-out: Km(L-Met)) it was 5 ± 2 µM; in the series with Mat2A [6] (Mat2A only (60 nM) preincubated 15 min at 37 °C, assay at pH 7.5, 22 °C, ATP 1.25 mM, read-out: Km(L-Met)) it was 3.5 ± 1.3 µM; on human Mat2A [4] (read-out: Km(L-Met)), 8 ± 2 µM. In the series on Mat2A [7] (without Mat2B, read-out: Km for L-Met), the Km was 14 µM. In addition, on human Mat2A [2] (ITC, 20 °C), the “binding to Mat2A (ITC)” value is on record as “No significant change in heat; also recorded: No binding”.
In the case of `NC1(C(=O)O)CCCC1` [L-cLeu, L-cycloleucine, reference compound], the “binding to Mat2A (ITC)” value is “no significant change in heat” on human Mat2A [2] (ITC, 20 °C) and “No binding” at human Mat2A [2] (ITC, 20 °C, listed as Cycloleucine). Moreover, the dissociation constant Kd on human Mat2A [2] (ITC, 20 °C, in the presence of 2 mM ATP) turned out to be 25 ± 10 µM. The “extent of inhibition of Mat2A” value at human Mat2A [3] is “fully inhibit”. Further, the “substrate activity for Mat2A” value at human Mat2A [3] is listed as “not a substrate”. Moreover, on human Mat2A [3] (variable substrate ATP, nonsaturating L-Met = 0.02 mM, pH 7.5, 22 °C), the “inhibition pattern (dead-end inhibition)” value was “U”. Also, the Ki on human Mat2A [3] (variable substrate L-Met, nonsaturating ATP = 0.07 mM, pH 7.5, 22 °C, read-out: inhibition constant Kis (dead-end inhibition)) is 160 µM; at human Mat2A [3] (variable substrate L-Met, saturating ATP = 1 mM, pH 7.5, 22 °C, read-out: inhibition constant Kis (dead-end inhibition)), 290 µM.
Usually IC50 stands for the concentration at which inhibition is half-maximal. For the compound `C[S+](CC[C@H](N)C(=O)[O-])C[C@H]1O[C@@H](n2cnc3c(N)ncnc32)[C@H](O)[C@@H]1O` (stereo partly drawn) [SAM, S-adenosyl-L-methionine], the IC50 is ~150 µM with Mat2A + Mat2B (read-out: IC50 of product inhibition by SAM) and ~300 µM with Mat2A [7] (without Mat2B, read-out: IC50 of product inhibition by SAM). For the same compound, the “Kii(SAM)” value on Mat2A/Mat2B complex [1] (setting [8]) stood at 130 ± 40 µM. Moreover, the “type of inhibition by SAM” value at Mat2A/Mat2B complex [1] (setting [8]) is “uncompetitive”. Also, on Mat2A/Mat2B complex [1] (versus Mat2A alone), the “increase in the potency of SAM inhibition in the presence of Mat2B” value came out at 1.8 fold. The “type of inhibition (product inhibition)” value on human Mat2A [3] (variable substrate ATP, nonsaturating L-Met (0.02 mM), pH 7.5, 22 °C) was “NC ^c”; on human Mat2A [3] (variable substrate ATP, saturating L-Met 0.6 mM, pH 7.5, 22 °C) it was “U ^b”; at human Mat2A [3] (variable substrate L-Met, nonsaturating ATP (0.07 mM), pH 7.5, 22 °C), “NC ^c”; at human Mat2A [3] (variable substrate L-Met, saturating ATP 0.5 or 1 mM, pH 7.5, 22 °C), “NC ^b”. In addition, the Ki at human Mat2A [3] (variable substrate ATP, nonsaturating L-Met (0.02 mM), pH 7.5, 22 °C, read-out: inhibition constant Kis (product inhibition)) came to 620 µM; on human Mat2A [3] (variable substrate L-Met, nonsaturating ATP (0.07 mM), pH 7.5, 22 °C, read-out: inhibition constant Kis (product inhibition)), 250 µM; on human Mat2A [3] (variable substrate L-Met, saturating ATP 0.5 or 1 mM, pH 7.5, 22 °C, read-out: inhibition constant Kis (product inhibition)) it was 190 µM.
Regarding `O=P(O)(O)O` [phosphate, inorganic phosphate], at human Mat2A [4] (setting [9]), the “inhibition constant Kii (product inhibition by phosphate)” value is recorded as “Kii = 5740 ± 760 ^b μM”, the “type of inhibition (product inhibition by phosphate)” value is listed as “NC ^b” and the Ki was 1290 µM. For the same compound, on human Mat2A [4] (setting [10]), the “inhibition constant Kii (product inhibition by phosphate)” value is recorded as “Kii = 4970 ± 770 ^b μM”, the “type of inhibition (product inhibition by phosphate)” value is on record as “NC ^b” and the Ki was found to be 1580 µM.
As to Mat1A (from UniProt Q00266), the dissociation constant Kd with Mat2B (Homo sapiens) is 3 µM.
As to “Mat2A: recombinant full-length human methionine adenosyltransferase Mat2A (UniProt P31153)”, the “time to 50% loss of activity” value in the series on Mat2A [6] (60 nM Mat2A preincubated in assay buffer at 37 °C, no substrates, no Mat2B) came to 2.3 min. Also, in the series with Mat2A [6] (Mat2A only (60 nM) preincubated 15 min at 37 °C, assay at pH 7.5, 22 °C), the kcat was 0.09 ± 0.005 ^b s^–1. The “kcat reported by other groups” value in the series on Mat2A [7] (different assay methods) was 0.27 s^–1 and 0.35 s^–1.
